Literature values as cited in US20170273596A1, “METHOD FOR MONITORING SWALLOWING” (NESTEC S.A., priority 2014, published 2017).

Assays:
[1] = database Episuite 4.1
[2] = database Episuite 4.1; remark: listed apart in the source

| Compound | Volatility: Air/water partition coefficient log K [w/v] [1] | Lipophilicity: Oil/Water partition coefficient log Kow [w/v] [2] |
| --- | --- | --- |
| CC(=O)C(C)=O [2,3-Butanedione] | −5.09 | −1.34 |
| CCC(=O)C(C)=O [2,3-Pentanedione] | −4.97 | −0.85 |
| CCC(C)C=O (stereo not drawn) [2-Methylbutanal] | −2.20 | 1.23 |
| C=C(C)[C@H]1CC=C(C)CC1 [Limonene] | 0.12 | 4.38 |
| CS [Methanethiol] | −0.97 | 0.78 |

More lines, now with the values ahead:

| Volatility: Air/water partition coefficient log K [w/v] [1] | Lipophilicity: Oil/Water partition coefficient log Kow [w/v] [2] | Compound |
| --- | --- | --- |
| −2.31 | – | 2-Methylpropanal |
| −2.19 | 1.23 | CC(C)CC=O [3-Methylbutanal] |
| −2.56 | −0.17 | CC=O [Acetaldehyde] |
| −1.49 | 0.92 | CSC [Dimethylsulfide] |
| −1.79 | 1.85 | CCCC(=O)OCC [Ethylbutyrate] |
| −8.47 | 1.05 | COc1cc(C=O)ccc1O [Vanillin] |
